Results: patent publication US10513680B2, “Green microalgae lacking a functional DYRKP-1 gene, for use for increased production of feedstock” (COMMISSARIAT A L'ENERGIE ATOMIQUE ET AUX ENERGIES …, priority 2014, dated 2019)

How the values were obtained:
std1 mutant = assay: Inhibition of TAG and starch accumulation by LOX inhibitor in std1 mutant under nitrogen starvation; type: cell-based, Chlamydomonas reinhardtii; conditions: 5 mM catechol, after 6-day under nitrogen starvation (FIG. 14)
Procedure: FIGS. 14A and 14B depict the inhibition of TAG and starch accumulation in the mutant by LOX inhibitors.
FIG. 14A depicts starch accumulation.
FIG. 14B depicts TAG accumulation.
The starch and chlorophyll contents were measured according to (Chochois et al., 2010). One mL of culture was harvested, centrifuged at ˜20,000 g for 10 min, resuspended in 1 mL of methyl alcohol for chlorophyll extraction and stored at −80° C. The pellets were dried, and 400 μL of water were added. To solubilize starch, the samples were autoclaved setting “dry cycle”. Subsequently, starch was degraded to glucose by adding 200 μL amyloglucosidase solution (1 U/mL, Roche) and incubation at 55° C. for 1-2 h. Using an automated sugar analyzer (Ysi model 2700 select, Yellow Springs, Ohio, USA), glucose concentration were determined. Chlorophyll was extracted by methanol, and chlorophyll a and b were determined by measuring the absorbance at 653, 666 and 750 nm using UV-VIS spectrophotometer (SAFAS UVmc2 with the software SP2000).
C. reinhardtii cells (eq. to 2 mm^3 total cellular volume) were harvested by centrifuge at 1000 g for 2 min (at 4° C.). The cells were either frozen right away under −80° C., or quenched in hot isopropanol for immediate lipid extractions. Total cellular lipids were extracted using a mixture of hexane and isopropanol (Li-Beisson et al., 2010). […]

WT strains = assay: Inhibition of TAG and starch accumulation by LOX inhibitor in WT strains under nitrogen starvation; type: cell-based, Chlamydomonas reinhardtii; conditions: in response to nitrogen starvation

**Q.** With `Oc1ccccc1O` [catechol] as the molecule, how does the TAG accumulation (std1 mutant) read?
**A.** inhibited

**Q.** What about the starch accumulation (std1 mutant) of the same molecule?
**A.** inhibited

**Q.** And the TAG accumulation (WT strains)?
**A.** inhibited

**Q.** And the starch accumulation (WT strains)?
**A.** no effect
